Source: patent publication US12377035B2, “Peptides for inhibiting cholinergic calcitonin gene-related peptide (CGRP) and acetylcholine (ACH) release or inhibiting sensitization-mediated by TRPV1-mediated excitability in sensory neurons and methods of use thereof” (AZIENDE CHIMICHE RIUNITE ANGELINI FRANCESCO—A.C.R.A.F. …, priority 2018, dated 2025)
Read-outs that look alike come from different tables or passages of the source. Residues, ends and D or L forms follow the SMILES beside them. *: point of attachment. Palmitoyl = CCCCCCCCCCCCCCCC(=O)*

Key:
[1] = system: acetylcholine release, human neuroblastoma cell line differentiated to cholinergic neuronal phenotype; assay: Inhibition of KCl-induced acetylcholine release in a neuroblastoma cell line (Amplex Red); format: cell-based; conditions: 50 mM KCl
Method: To determine the compound of the invention effects on acetylcholine release, a human neuroblastoma cell line (50.000 cells/well) was used. Cells were differentiated to cholinergic neuronal phenotype for 4 days. Then, cells were pre-incubated for 60 minutes with the compounds (between 0.1 and 100 μM) as acetyl- or palmitoyl-form and conjugated with trifluoroacetate (TFA) or acetate salt. Afterwards, acetylcholine release was induced by membrane depolarization evoked by 15 minutes incubation with 50 mM KCl. Acetylcholine level in supernatants was quantified by using Amplex® Red Acetylcholine Assay Kit (Thermofisher) following manufacturer's instructions. […] Fluorescence (Ex 530 nm/Em 590 nm) was measured in FluorStar equipment. Acetylcholine content was normalized to the total protein content using BCA assay (Pierce) following manufacturer's instructions. Fluorescence measurements were normalized to the maximum signal detected with KCl stimulation in vehicle treated cells. Vesicle exocytosis disruption by the compounds of the invention lead to a decrease of acetylcholine release (Table E).

[2] = system: pilocarpine-induced sweating, C57BL6/Rcc male mice; assay: Antiperspirant effect, chronic administration, pilocarpine-induced sweating mouse model; format: in vivo; conditions: during 4 weeks treatment, 100 μg/paw
Method: This example evaluated chronic effects of peptide of invention SEQ ID NO: 1 pamitoylated form, in an in vivo sweating model. This model was established using pilocarpine, a non-selective agonist of muscarinic receptors, in 11-weeks old C57BL6/Rcc male mice. Test compound was locally administered three times per week for 4 weeks (Treatment). Sweat was induced by intraplantar (i.pl) injection of pilocarpine (3 μg/paw) in the right hind paw (Sweating) once on weeks 1, 2 and 4 according to table H.
Test compound was injected i.pl. on the right hind paw (1, 10 and 100 μg), and vehicle was saline solution.
Sweating was monitored through amylase activity detection on skin surface using iodine/starch reaction. Dark sweating drops were quantified after 5 minutes induction counting number of drops per paw in each condition. Sample n=5-6 individuals per group. Data are expressed as mean #standard error of the mean (SEM). Raw data was normalized as percentage respect to non-injected stimulated individuals (control, 100%). Statistical analysis was one-way ANOVA followed by Dunnett's post-hoc multiple comparison test comparing each condition with the corresponding control group, ****p<0.0001 ***p<0.001 **p<0.01, *p<0.05

[3] = system: TRPV1-mediated excitability of sensory neurons (neonatal rat dorsal root ganglia); assay: In vitro functional assay for neuronal sensitization (microelectrode array, capsaicin pulses); format: cell-based, Wistar rats; conditions: for % Sensitization inhibition: incubated 1 hour, 100 - ratio P3/P1
Method: Isolated neonatal rat dorsal root ganglia from Wistar rats (3-5 days-old) were seeded microelectrode array chips in DMEM Glutamax, 10% FBS, 1% P/S supplemented with murine NGF. All experiments were performed after 48 h cell seeding.
Sensory neurons were sensitized by acute exposure to pro-inflammatory cocktail with bradykinin, histamine and ATP. TRPV1-mediated excitability was analyzed as stinging, burning and itching sensations are mainly driven by TRPV1. Repetitive application of TRPV1-agonist capsaicin (15 s-application 500 nM) allowed first activation (P1) followed by desensitization (second application). Desensitized cultures were sensitized with the cocktail to recover excitability, using external solution between the second (P2) and the third (P3) capsaicin pulse (8 min). To confirm cell viability 40 mM KCl was applied at the end. Test compound was incubated 1 hour before monitoring at 0.1, 1 and 10 µM. Test compound is the peptide having the following sequence (SEQ ID NO: 1): Palm-HYWRELQYR-NH2
Sensitization was calculated as ratio between P3 and P1 capsaicin pulse (ratio P3/P1), representing sensitized response induced by the pro-inflammatory cocktail. Inhibition percentage was calculated as 100-Sensitization. Data are expressed as mean±standard error of the mean (SEM), Statistical analysis was one-way ANOVA followed by Dunnett's post-hoc multiple comparison test comparing each condition with the corresponding sensitization control group, ****p<0.0001 ***p<0.001 **p<0.01, *p<0.05

[4] = system: pilocarpine-induced sweating, C57BL6/Rcc male mice; conditions: acute, at 10, 30 and 100 μg
Method: Test compound was injected intraplantar (i.pl.) on the right hind paw (10, 30 and 100 μg) 30 min before sweating stimulation. Vehicle was saline solution.
Sweating was monitored through amylase activity detection on skin surface using iodine/starch reaction. Dark sweating drops were quantified after 5 minutes induction counting number of drops per paw in each condition. Sample n=5-6 individuals per group. Data are expressed as mean±standard error of the mean (SEM). Raw data was normalized as percentage respect to non-injected stimulated individuals (Control, 100%) and saline-injected non-stimulated individuals (Vehicle, 0%). Statistical analysis was one-way ANOVA followed by Dunnett's post-hoc multiple comparison test comparing each condition with the corresponding control group, ****p<0.0001 ***p<0.001 **p<0.01, *p<0.05

CCCCCCCCCCCCCCCC(=O)N[C@@H](Cc1c[nH]cn1)C(=O)N[C@@H](Cc1ccc(O)cc1)C(=O)N[C@@H](Cc1c[nH]c2ccccc12)C(=O)N[C@@H](CCCNC(=N)N)C(=O)N[C@@H](CCC(=O)O)C(=O)N[C@@H](CC(C)C)C(=O)N[C@@H](CCC(N)=O)C(=O)N[C@@H](Cc1ccc(O)cc1)C(=O)N[C@@H](CCCNC(=N)N)C(N)=O [SEQ ID NO: 1 palmitoyl, Palm-HYWRELQYR-NH2] (Palmitoyl-HYWRELQYR-NH2)
% Ach release inhibition ([1]; Acetate salt, 0.1 μM): 42.9%
% Ach release inhibition ([1]; Acetate salt, 1 μM): 81.3%
% Ach release inhibition ([1]; Acetate salt, 10 μM): 87.5%
% Ach release inhibition ([1]; TFA salt, 5 μM): 7.9%
% Ach release inhibition ([1]; TFA salt, 10 μM): 49.4%
% Ach release inhibition ([1]; TFA salt, 50 μM): 75.9%
effect on sweating (in words) [2]: significant sweating inhibition
% Sensitization inhibition ([3]; 0.1 μM): 69.7%
% Sensitization inhibition ([3]; 1 μM): 51.2%
% Sensitization inhibition ([3]; 10 μM): 59.7%
effect on sensitization process (in words) ([3]; at the three concentration (0.1, 1 and 10 µM)): significantly inhibited sensitization process with similar efficacy
effect on sweating (in words) [4]: significantly reduced sweating
